Data: patent US20120283216A1, “FUNGICIDAL 2-(BICYCLIC ARYLOXY)CARBOXAMIDES” (priority 2009, published 2012)

Tests used:
Type in all cases: in vivo
[1] = system: Blumeria graminis f. sp. tritici; experiment: Test A: wheat powdery mildew, preventive spray on wheat seedlings, visual disease rating; conditions: preventive spray at 40 ppm, rated 8 days after inoculation; for pest or weed control at 40 ppm: Blumeria graminis, 192 h, read-out: Test A disease control rating (100 = 100% disease control, 0 = no disease control relative to the controls)
Procedure, shortened: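 Wheat seedlings sprayed to run-off with 40 ppm compound (equivalent to 800 g/ha) in acetone/water with 250 ppm surfactant, then dusted with B. graminis spores next day. Held at 20° C. for 8 days before visual rating, 0–100 scale as % disease control relative to controls.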

Botrytis cinerea = experiment: Test C: tomato botrytis, preventive spray on tomato seedlings, visual disease rating; conditions: preventive spray at 40 ppm, rated after 48 h + 3 days; for pest or weed control at 40 ppm: Botrytis cinerea, 120 h, read-out: Test C disease control rating (100 = 100% disease control, 0 = no disease control relative to the controls)
Procedure, shortened: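 Compounds applied at 40 ppm (≈800 g/ha) in acetone/water with surfactant, sprayed to run-off on tomato seedlings. Inoculated next day with B. cinerea spores; 48 h saturated humidity at 20 °C, then 3 days at 27 °C. Visual rating as % disease control versus untreated controls.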

Septoria tritici = experiment: Test B: wheat leaf blotch, preventive spray on wheat seedlings, visual disease rating; conditions: preventive spray at 40 ppm, rated after 48 h + 19 days; for pest or weed control at 40 ppm: Zymoseptoria tritici, 504 h, read-out: Test B disease control rating (100 = 100% disease control, 0 = no disease control relative to the controls)
Procedure, shortened: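 Wheat seedlings were sprayed to run-off with 40 ppm compound (≈800 g/ha) in acetone/water with 250 ppm surfactant, then inoculated with Septoria tritici spores the next day. After 48 h saturated humidity at 20° C and 19 days in a growth chamber at 20° C, disease control was rated visually (0–100% vs controls).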

Structure (SMILES) | pest or weed control at 40 ppm [1] [%] | pest or weed control at 40 ppm (Botrytis cinerea) [%] | pest or weed control at 40 ppm (Septoria tritici) [%] | Test A disease control rating (100 = 100% disease control, 0 = no disease control relative to the controls) [1] [%] | Test C disease control rating (100 = 100% disease control, 0 = no disease control relative to the controls) (Botrytis cinerea) [%] | Test B disease control rating (100 = 100% disease control, 0 = no disease control relative to the controls) (Septoria tritici) [%]
COCC(C)(C)NC(=O)C(OC)Oc1ccc2ccc(Br)cc2c1 (stereo not drawn) [Compound 90, 2-[(7-bromo-2-naphthalenyl)oxy]-2-methoxy-N-(2-methoxy-1,1-dimethylethyl)acetamide] | 100 | 100 | 100 |  |  | 
CCC(Oc1cnc2ccc(Br)cc2c1)C(=O)NC(C)(C)C (stereo not drawn) [Compound 37, 2-[(6-bromo-3-quinolinyl)oxy]-N-(1,1-dimethylethyl)butanamide] | 89 | 99 | 100 |  |  | 
C#Cc1ccc2ncc(OC(CC)C(=O)NC(C)(C)C)cc2c1 (stereo not drawn) [Compound 149] |  |  |  | 100 | 98 | 100
CCC(Oc1ccc2ccc(C#N)cc2c1)C(=O)NC(C)(C)COCOC (stereo not drawn) [Compound 22, 2-[(7-cyano-2-naphthalenyl)oxy]-N-[2-(methoxymethoxy)-1,1-dimethylethyl]butanamide] | 93 | 100 | 100 |  |  | 
COCC(C)(C)NC(=O)C(OC)Oc1ccc2ccc(I)cc2c1 (stereo not drawn) [Compound 103, 2-[(7-iodo-2-naphthalenylyl)oxy]-2-methoxy-N-(2-methoxy-1,1-dimethylethyl)acetamide] |  |  |  | 100 | 100 | 100
CCCOc1ccc2ccc(OC(OC)C(=O)NC(C)(C)C)cc2c1 (stereo not drawn) [Compound 125] |  |  |  | 92 | 98 | 100
CCC(Oc1ccc2ccc(OC)cc2c1)C(=O)NC(C)(C)C (stereo not drawn) [Compound 3, N-(1,1-dimethylethyl)-2-[(7-methoxy-2-naphthalenyl)oxy]butan amide] | 100 | 99 | 99 |  |  | 
CCC(Oc1cnc2ccc(I)cc2c1)C(=O)NC(C)(C)COC (single isomer, unassigned) [Compound 62] |  |  |  | 0 | 7 | 0
C#CC(CC)(CC)NC(=O)C(CC)Oc1ccc2ccc(OC)cc2c1 (stereo not drawn) [Compound 86] |  |  |  | 0 | 19 | 19
CCC(Oc1ccc2ccc(Br)cc2c1)C(=O)NC(C)(C)COC=O (stereo not drawn) [Compound 18] |  |  |  | 99 | 100 | 99
CCC(Oc1ccc2ccc(Br)cc2c1)C(=O)NC(C)(C)COC (stereo not drawn) [Compound 7, 2-[(7-bromo-2-naphthalenyl)oxy]-N-(2-methoxy-1,1-dimethylethyl)butanamide] | 100 | 99 | 99 |  |  | 
CCOc1ccc2ccc(OC(OC)C(=O)NC(C)(C)COC)cc2c1 (stereo not drawn) [Compound 70] |  |  |  | 100 | 98 | 100
CCC(Oc1cnc2c(Cl)cc(Cl)cc2c1)C(=O)NC(C)(C)C (stereo not drawn) [Compound 57] | 0 | 99 | 99 |  |  | 
CCOC(Oc1ccc2ccc(Br)cc2c1)C(=O)NC(C)(C)COC (stereo not drawn) [Compound 118] |  |  |  | 0 | 97 | 97
C#CC(C)(C)NC(=O)C(CC)Oc1ccc2ccc(C(F)F)cc2c1 (stereo not drawn) [Compound 78] |  |  |  | 81 | 99 | 88
C#CCOc1ccc2ccc(OC(OC)C(=O)NC(C)(C)C)cc2c1 (stereo not drawn) [Compound 131] |  |  |  | 68 | 100 | 100
C#CC(C)(C)NC(=O)C(CC)Oc1cnc2ccc(F)cc2c1 (stereo not drawn) [Compound 47] |  |  |  | 0 | 70 | 20
C#CCOc1ccc2ccc(OC(OC)C(=O)NC(C)(C)C#C)cc2c1 (stereo not drawn) [Compound 132] |  |  |  | 13 | 100 | 99
COc1ccc2ccc(OC(OC)C(=O)NC(C)(C)C#N)cc2c1 (stereo not drawn) [Compound 81] |  |  |  | 0 | 100 | 99
CCC(Oc1cnc2c(Cl)cc(Cl)cc2c1)C(=O)NC(C)(C)COC (stereo not drawn) [Compound 56] |  |  |  | 0 | 99 | 99
CCCOc1ccc2ccc(OC(OC)C(=O)NC(C)(C)CC)cc2c1 (stereo not drawn) [Compound 136] |  |  |  | 79 | 97 | 98
CCCOc1ccc2ccc(OC(CC)C(=O)NC(C)(C)C)cc2c1 (stereo not drawn) [Compound 128] |  |  |  | 98 | 99 | 100
COC(Oc1ccc2ccc(I)cc2c1)C(=O)NC(C)(C)C#N (stereo not drawn) [Compound 104] |  |  |  | 94 | 99 | 100
CCC(Oc1ccc2ccc(Br)cc2c1)C(=O)NC(C)(C)C1CO1 (stereo not drawn) [Compound 19] |  |  |  | 0 | 98 | 60
C#CC(C)(C)NC(=O)C(CC)Oc1ccc2ccc(OCOC)cc2c1 (stereo not drawn) [Compound 73] |  |  |  | 0 | 99 | 100
CCOC(Oc1ccc2ccc(OC)cc2c1)C(=O)NC(C)(C)COC (stereo not drawn) [Compound 113] |  |  |  | 97 | 99 | 100
COC(Oc1cnc2ccc(C#C[Si](C)(C)C)cc2c1)C(=O)NC(C)(C)C (stereo not drawn) [Compound 161] |  |  |  | 0 | 99 | 100
CCC(Oc1ccc2ccc(OC)cc2c1)C(=O)NC(C)(C)C(=O)OC (stereo not drawn) [Compound 84] |  |  |  | 0 | 100 | 84
C#CC(C)(C)NC(=O)C(CC)Oc1ccc2ccc(OCCC)cc2c1 (stereo not drawn) [Compound 129] |  |  |  | 96 | 99 | 99
CCC(Oc1ccc2ccc(Br)cc2c1)C(=O)NC(C)(C)COCOC (stereo not drawn) [Compound 20, 2-[(7-bromo-2-naphthalenyl)oxy]-N-[2-(methoxymethoxy)-1,1-dimethylethyl]butanamide] | 98 | 98 | 99 |  |  | 
